Results reported in paper PMC12888861, “Antibacterial activity of enmetazobactam against Acinetobacter spp.: a molecular dissection of mechanism of action and resistance determinants” (Antimicrobial Agents and Chemotherapy, 2025).
≈ marks a conversion by molar mass, not a printed value.

Tested on: carbapenem-resistant A. baumannii (CRAB) isolates (n = 67)
Assay: MIC, broth microdilution (EUCAST), carbapenem-resistant A. baumannii isolates
Type: cell-based, Acinetobacter baumannii
Conditions: for MIC: Acinetobacter baumannii
How it was run: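 Broth microdilution per EUCAST v.15 guidelines on clinical Acinetobacter isolates from a Spanish 2020 multicenter collection; enmetazobactam also tested alone. A. baumannii ATCC 19606 served as reference strain, in duplicate assays.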

[1] = CHDLs-producing A. baumannii isolates (n = 67), durlobactam series, DUR fixed 4 mg/L in combinations

CC1(C)[C@H](C(=O)O)N2C(=O)C[C@H]2S1(=O)=O [sulbactam]
MIC distribution ≥64: 100% | MIC (MBC set, isolate Ab4, A. baumannii ST 2, ADC-30, OXA-66, ISAba1-OXA-23): 16 µg/mL (≈ 68.6 µM) | MIC (MBC set, isolate Ab6, A. baumannii ST 2, ADC-30, OXA-66, ISAba1-OXA-23, TEM-12): 16 µg/mL (≈ 68.6 µM) | MIC (MBC set, isolate Ab9, A. baumannii ST 2, ADC-30, OXA-66, OXA-23, TEM-12): 4 µg/mL (≈ 17.1 µM) | MIC (isolate Ab56, ST 1, ADC-75, OXA-69, OXA-23, ETZ fixed 8 mg/L in combinations): 8 µg/mL | MIC (isolate Ab83, ST 25, ADC-5, OXA-64, OXA-23, DUR fixed at 4 mg/L in combinations): 32 µg/mL | MIC (isolate Ab83, ST 25, ADC-5, OXA-64, OXA-23, ETZ fixed 8 mg/L in combinations): 32 µg/mL | MIC (isolate Ab109, ST 1, ADC-75, OXA-69, OXA-23, DUR fixed at 4 mg/L in combinations): 16 µg/mL | MIC (isolate Ab109, ST 1, ADC-75, OXA-69, OXA-23, ETZ fixed 8 mg/L in combinations): 16 µg/mL | MIC (isolate Ab133, ST 2, ADC-30, OXA-66, OXA-58, TEM-12, DUR fixed at 4 mg/L in combinations): 32 µg/mL | MIC (isolate Ab133, ST 2, ADC-30, OXA-66, OXA-58, TEM-12, ETZ fixed 8 mg/L in combinations): 32 µg/mL | MIC (isolate Ab134, ST 2, ADC-30, OXA-66, OXA-58, TEM-12, DUR fixed at 4 mg/L in combinations): 32 µg/mL | MIC (isolate Ab134, ST 2, ADC-30, OXA-66, OXA-58, TEM-12, ETZ fixed 8 mg/L in combinations): 32 µg/mL | MIC (isolate Ab137, ST 85, ADC-2, OXA-94, OXA-23, DUR fixed at 4 mg/L in combinations): 16 µg/mL | MIC (isolate Ab137, ST 85, ADC-2, OXA-94, OXA-23, ETZ fixed 8 mg/L in combinations): 16 µg/mL | MIC (isolate Ab138, ST 745, ADC-30, OXA-66, OXA-58, DUR fixed at 4 mg/L in combinations): 4 µg/mL | MIC (isolate Ab138, ST 745, ADC-30, OXA-66, OXA-58, ETZ fixed 8 mg/L in combinations): 8 µg/mL | MIC (isolate Ab140, ST 85, ADC-2, OXA-94, OXA-23, DUR fixed at 4 mg/L in combinations): 16 µg/mL | MIC (isolate Ab140, ST 85, ADC-2, OXA-94, OXA-23, ETZ fixed 8 mg/L in combinations): 16 µg/mL | MIC (isolate Ab141, ST 745, ADC-30, OXA-66, OXA-58, DUR fixed at 4 mg/L in combinations): 8 µg/mL | MIC (isolate Ab141, ST 745, ADC-30, OXA-66, OXA-58, ETZ fixed 8 mg/L in combinations): 8 µg/mL | MIC (isolate Ab144, ST 745, ADC-30, OXA-66, OXA-58, DUR fixed at 4 mg/L in combinations): 8 µg/mL | MIC (isolate Ab144, ST 745, ADC-30, OXA-66, OXA-58, ETZ fixed 8 mg/L in combinations): 8 µg/mL | MIC (isolate Ab169, ST 2, ADC-30, OXA-66, OXA-23, DUR fixed at 4 mg/L in combinations): 16 µg/mL | MIC (isolate Ab169, ST 2, ADC-30, OXA-66, OXA-23, ETZ fixed 8 mg/L in combinations): 16 µg/mL | MIC (isolate Ab171, ST 2, ADC-30, OXA-66, OXA-23, DUR fixed at 4 mg/L in combinations): 16 µg/mL | MIC (isolate Ab171, ST 2, ADC-30, OXA-66, OXA-23, ETZ fixed 8 mg/L in combinations): 16 µg/mL | MIC (isolate Ab173, ST 2, ISAba1-ADC-30, OXA-66, OXA-23, DUR fixed at 4 mg/L in combinations): 32 µg/mL | MIC (isolate Ab173, ST 2, ISAba1-ADC-30, OXA-66, OXA-23, ETZ fixed 8 mg/L in combinations): 32 µg/mL | MIC (isolate Ab174, ST 2, ADC-30, OXA-66, OXA-23, DUR fixed at 4 mg/L in combinations): 16 µg/mL | MIC (isolate Ab174, ST 2, ADC-30, OXA-66, OXA-23, ETZ fixed 8 mg/L in combinations): 16 µg/mL | MIC (isolate Ab179, ST 2, ADC-30, OXA-66, OXA-23, DUR fixed at 4 mg/L in combinations): 16 µg/mL | MIC (isolate Ab179, ST 2, ADC-30, OXA-66, OXA-23, ETZ fixed 8 mg/L in combinations): 16 µg/mL | MIC (isolate Ab180, ST 2, ADC-30, OXA-66, OXA-24/40, DUR fixed at 4 mg/L in combinations): 4 µg/mL | MIC (isolate Ab180, ST 2, ADC-30, OXA-66, OXA-24/40, ETZ fixed 8 mg/L in combinations): 4 µg/mL | MIC (isolate Ab181, ST 2, ADC-30, OXA-66, OXA-23, DUR fixed at 4 mg/L in combinations): 16 µg/mL | MIC (isolate Ab181, ST 2, ADC-30, OXA-66, OXA-23, ETZ fixed 8 mg/L in combinations): 16 µg/mL | MIC (isolate Ab182, ST 2, ADC-30, OXA-66, OXA-23, DUR fixed at 4 mg/L in combinations): 8 µg/mL | MIC (isolate Ab182, ST 2, ADC-30, OXA-66, OXA-23, ETZ fixed 8 mg/L in combinations): 8 µg/mL | MIC (isolate Ab183, ST 2, ADC-30, OXA-66, OXA-23, DUR fixed at 4 mg/L in combinations): 8 µg/mL | MIC (isolate Ab183, ST 2, ADC-30, OXA-66, OXA-23, ETZ fixed 8 mg/L in combinations): 8 µg/mL | MIC (isolate Ab184, ST 2, ADC-30, OXA-66, OXA-23, DUR fixed at 4 mg/L in combinations): 16 µg/mL | MIC (isolate Ab184, ST 2, ADC-30, OXA-66, OXA-23, ETZ fixed 8 mg/L in combinations): 16 µg/mL | MIC (isolate Ab186, ST 2, ADC-30, OXA-66, OXA-23, DUR fixed at 4 mg/L in combinations): 16 µg/mL | MIC (isolate Ab186, ST 2, ADC-30, OXA-66, OXA-23, ETZ fixed 8 mg/L in combinations): 16 µg/mL | MIC (isolate Ab191, ST 2, ADC-30, OXA-66, OXA-23, DUR fixed at 4 mg/L in combinations): 16 µg/mL | MIC (isolate Ab191, ST 2, ADC-30, OXA-66, OXA-23, ETZ fixed 8 mg/L in combinations): 16 µg/mL | MIC (isolate Ab192, ST 2, ADC-30, OXA-66, OXA-23, DUR fixed at 4 mg/L in combinations): 16 µg/mL | MIC (isolate Ab192, ST 2, ADC-30, OXA-66, OXA-23, ETZ fixed 8 mg/L in combinations): 16 µg/mL | MIC (isolate Ab194, ST 2, ADC-30, OXA-66, OXA-23, DUR fixed at 4 mg/L in combinations): 16 µg/mL | MIC (isolate Ab194, ST 2, ADC-30, OXA-66, OXA-23, ETZ fixed 8 mg/L in combinations): 16 µg/mL | MIC (isolate Ab199, ST 2, ADC-30, OXA-66, OXA-23, DUR fixed at 4 mg/L in combinations): 16 µg/mL | MIC (isolate Ab199, ST 2, ADC-30, OXA-66, OXA-23, ETZ fixed 8 mg/L in combinations): 16 µg/mL | MIC (isolate Ab201, ST 2, ADC-30, OXA-66, OXA-23, DUR fixed at 4 mg/L in combinations): 16 µg/mL | MIC (isolate Ab201, ST 2, ADC-30, OXA-66, OXA-23, ETZ fixed 8 mg/L in combinations): 16 µg/mL | MIC (isolate Ab204, ST 2, ADC-30, OXA-66, OXA-23, DUR fixed at 4 mg/L in combinations): 16 µg/mL | MIC (isolate Ab204, ST 2, ADC-30, OXA-66, OXA-23, ETZ fixed 8 mg/L in combinations): 8 µg/mL | MIC50 [1]: 16 µg/mL | MIC90 [1]: 32 µg/mL | MIC distribution 0.12 (cumulative % of CHDLs-producing A. baumannii isolates (n = 67) at MIC 0.12 mg/L, DUR fixed 4 mg/L in combinations): 0.0% | MIC distribution 0.25 (cumulative % of CHDLs-producing A. baumannii isolates (n = 67) at MIC 0.25 mg/L, DUR fixed 4 mg/L in combinations): 0.0% | MIC distribution 0.5 (cumulative % of CHDLs-producing A. baumannii isolates (n = 67) at MIC 0.5 mg/L, DUR fixed 4 mg/L in combinations): 0.0% | MIC distribution 1 (cumulative % of CHDLs-producing A. baumannii isolates (n = 67) at MIC 1 mg/L, DUR fixed 4 mg/L in combinations): 0.0% | MIC distribution 2 (cumulative % of CHDLs-producing A. baumannii isolates (n = 67) at MIC 2 mg/L, DUR fixed 4 mg/L in combinations): 13.4% | MIC distribution 4 (cumulative % of CHDLs-producing A. baumannii isolates (n = 67) at MIC 4 mg/L, DUR fixed 4 mg/L in combinations): 20.9% | MIC distribution 8 (cumulative % of CHDLs-producing A. baumannii isolates (n = 67) at MIC 8 mg/L, DUR fixed 4 mg/L in combinations): 34.3% | MIC distribution 16 (cumulative % of CHDLs-producing A. baumannii isolates (n = 67) at MIC 16 mg/L, DUR fixed 4 mg/L in combinations): 89.6% | MIC distribution 32 (cumulative % of CHDLs-producing A. baumannii isolates (n = 67) at MIC 32 mg/L, DUR fixed 4 mg/L in combinations): 100% | MIC distribution 0.12 (cumulative share of CRAB isolates (n = 67) at MIC 0.12 mg/L, ETZ fixed 8 mg/L in combinations): 0 | MIC distribution 0.25 (cumulative share of CRAB isolates (n = 67) at MIC 0.25 mg/L, ETZ fixed 8 mg/L in combinations): 0 | MIC distribution 0.5 (cumulative share of CRAB isolates (n = 67) at MIC 0.5 mg/L, ETZ fixed 8 mg/L in combinations): 0 | MIC distribution 1 (cumulative share of CRAB isolates (n = 67) at MIC 1 mg/L, ETZ fixed 8 mg/L in combinations): 0 | MIC distribution 2 (cumulative share of CRAB isolates (n = 67) at MIC 2 mg/L, ETZ fixed 8 mg/L in combinations): 14.9 | MIC distribution 4 (cumulative share of CRAB isolates (n = 67) at MIC 4 mg/L, ETZ fixed 8 mg/L in combinations): 17.9 | MIC distribution 8 (cumulative share of CRAB isolates (n = 67) at MIC 8 mg/L, ETZ fixed 8 mg/L in combinations): 34.3 | MIC distribution 16 (cumulative share of CRAB isolates (n = 67) at MIC 16 mg/L, ETZ fixed 8 mg/L in combinations): 89.6 | MIC distribution 32 (cumulative share of CRAB isolates (n = 67) at MIC 32 mg/L, ETZ fixed 8 mg/L in combinations): 100 | MIC distribution 64 (cumulative share of CRAB isolates (n = 67) at MIC 64 mg/L, ETZ fixed 8 mg/L in combinations): 100
